From patent publication US20100221341A1, “Alanine-Based Peptide Hydrogels” (Drexel University, priority 2009, published 2010)
Ends that are not written are not given here.

What was measured:
Type in all cases: physicochemical
[1] = Hydrogel formation
Procedure: For the FT-IR (Fourier transform infrared), CD (circular dichroism), and Raman measurements of Ac-(AAKA)4-NH2, unless otherwise described, the peptide was dissolved in acidic D2O (pD=1.4) at a concentration of ˜15 mg/mL (˜10.5 mM), where the D2O was made acidic by the addition of DCl (Sigma-Aldrich). […] The measurements for the gelated state of the 12-mer, Ac-(AAKA)3-NH2, were carried out similarly, at a concentration of ˜27 mg/mL in D2O (pD=1.4). For the ECD measurements, Ac-(AAKA)3-NH2 and (AAKA)4 were dissolved in acidic D2O at concentrations of 2.4 mg/mL and 1 mg/mL, respectively, and the samples were measured at room temperature.
NaCl was added to a freshly aqueous solution of (AAKA)4, wherein the concentration of peptide was equal to or higher than 0.5 wt %. […] An example of such hydrogel is illustrated in FIG. 15.

[2] = Rheology (viscosity) of peptide solutions with NaCl
Procedure: Rheology measurements were made for solutions of (AAKA)4 (concentration of 5 mg/mL or 3.5 mM) in 0.5 M and 1.0 M NaCl, as shown in FIG. 16. […] The shear-thinning behavior observed in these experiments was consistent with other oligopeptides hydrogels (Schneider, […], J. Am. Chem. Soc. 124:15030).
Another rheology experiment is illustrated in FIG. 17, for a solution of (AAKA)4 (concentration of 5 mg/mL) in 0.0 M, 1.0 M and 2.0 M NaCl. FIG. 17 illustrates three experimental curves for each concentration of NaCl.
Yet another rheology experiment is illustrated in FIG. 18, for a 5 mg/mL and a 10 mg/mL solution of (AAKA)4 in 1 M NaCl. FIG. 18 illustrates three experimental curves for each value of concentration of peptide.
As illustrated above, (AAKA)4 was conformationally unstable upon dissolution in water, prior to the addition of salt and consequent hydrogel formation. […] This is illustrated in FIG. 19, where the viscosity of a 5 mg/mL (AAKA)4 solution comprising 2 M NaCl was compared with the viscosity of a similar peptide solution wherein NaCl was added after ˜24 hours.

[3] = UV-CD kinetics after dissolution in D2O, read at 198 nm and 215 nm
Procedure: (§1) The Raman spectra were obtained with the 442 nm (40 mW) excitation from a HeCd laser (Model IK 4601R-E, Kommon Electrics, USA) and recorded with a RM 100 Remishaw confocal microscope. The UV ECD spectra in the wavelength range of 180-250 nm of peptides were measured with a JASCO J-810 spectrapolarimeter in a 0.1 mm quartz cell with 0.05 nm resolution. Samples were placed in a nitrogen purged JASCO CD module. The temperature at the cuvette was controlled by means of a Peltier-type heating system (accuracy ±1° C.) set to 20° C. The spectra were obtained by averaging ten scans and were collected as ellipticity as a function of wavelength, and converted to units of molar absorptivities via the equation: […]
The UV-CD spectra of Ac-(AAKA)4-NH2 was acquired at various times after dissolution in deuterated water (D2O). The results are illustrated in FIG. 4. Initially a significant percentage of β-structure was observed, and in a time-dependent manner more flexible PPII-like conformations were observed.
The UV-CD kinetics of Ac-(AAKA)4-NH2, in terms of the readings at 198 nm and 215 nm as a function of time, were monitored. The results are illustrated in FIG. 5. The plots were fit to bi-exponential functions, reflecting a fast phase (˜18 minutes) and a slow phase (>300 minutes). The fast phase may reflect the kinetics of hydration/dissolution of the peptide. […]

[4] = Temperature-dependent UV-CD spectra; conditions: 3.5 mM in D2O, pH 2.7; intersection of two fitted straight lines
Procedure: as §1
The temperature-dependent UV-CD spectra of 3.5 mM Ac-(AAKA)4-NH2 measured at acid pH is illustrated in FIG. 8. […] The inset of FIG. 8 illustrates the change of the Δε measured at 214.5 nm as a function of temperature, reflecting the decrease of the β-sheet content with increasing temperature.
Two different modes were found in the relationship between the n-sheet content and temperature. The β-sheet content, as evaluated by Δε, […] linearly with temperatures below 300 K and remained almost constant after 350 K. The transition temperature between these two modes was around 320 K, as is defined by the intersection between the two straight lines, fitting the initial and final behaviors.

hydrogel formation on addition of NaCl ([1]; 1-year-old sample, 5 mg/mL (3.5 mM))	hydrogel formation on addition of NaCl ([1]; fresh aqueous solution, peptide equal to or higher than 0.5 wt %, final NaCl higher than 1.0 M)	viscosity as a function of peptide and NaCl concentration ([2]; 5 mg/mL (3.5 mM) in 0.5 M and 1.0 M NaCl)	viscosity of hydrogel when salt is added with delay ([2]; 5 mg/mL, 2 M NaCl added after ~24 hours, versus NaCl added at time zero)	transition temperature of β-sheet content (Δε at 214.5 nm) [4]	Substance	fast phase of UV-CD kinetics (bi-exponential fit) [3] [min]	slow phase of UV-CD kinetics (bi-exponential fit) [3] [min]	hydrogel formation after dissolution ([1]; ~15 mg/mL (~10.5 mM) in acidic D2O, pD 1.4)
did not result in hydrogel formation	rigid self-supporting hydrogel	more viscous gels	much less viscous and rigid hydrogel		AAKAAAKAAAKAAAKA [(AAKA)4]			
				around 320 K	Ac-AAKAAAKAAAKAAAKA-NH2 [Ac-(AAKA)4-NH2]	~18	> 300	formed a hydrogel shortly after dissolution
